# Laboratory results from the supplement of paper PMC11208160.
# Experiment: recombinant barcode read abundance after kanamycin selection (control-corrected) (log10(CPM+1)); higher = more efficient recombination; sequences stand for … in AGTGCAGAGAAAATCGGCCAGTTTTCTCTGCCTGCAGTCCGCATGCCGT…AGATTTATGCAGCGGACTGCCTTTCTCCCAAAGTGATAAACCGGACAGTATCATGGACCGGTTTTCCCGGTAATCCGTATTTGCAAGGTTGGTTTCACT; site = the 11-nt target
# How it was run: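 IS621 bridge RNA target-binding loops were paired with targets in a pooled library tested in E. coli. After co-electroporation with a donor plasmid, cells were plated in two replicates on chloramphenicol/ampicillin LB agar (control) and on chloramphenicol/ampicillin/kanamycin carrying 0.1 mM IPTG. Barcodes at recombinant junctions were counted as counts per million, averaged and control-corrected to give recombination efficiency. Values are log10(CPM+1).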
# 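Note: IS621 recombinase and bridge RNA in Escherichia coli cells.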
row,Sequence,recombinant barcode read abundance (log10)
1,CCGCCGGCTTGGGTTCTAACCTGTTGCCT (site CCGCCGGCTAG),0.146
2,CCGCCGGCTTGGGTTCTAACCTGTTGCCT (site CCGCCTGCTAG),0.0797
3,CCGCCTGCTTGGGTTCTAACCTGTTGCCT (site CCGCCAGCTAG),0.293
4,CCGCCTGCTTGGGTTCTAACCTGTTGCCT (site CCGCCCGCTAG),0.198
5,CCGCCTGCTTGGGTTCTAACCTGTTGCCT (site CCGCCGGCTAG),0.24
6,CCGCCTGCTTGGGTTCTAACCTGTTGCCT (site CCGCCTGCTAG),0.0789
7,CCGCGTCCTTGGGTTCTAACCTGTTGCTA (site CCGCCTCCTTC),0.128
8,CCGCGTCCTTGGGTTCTAACCTGTTGCTA (site CCGCGTCCTTA),0.111
9,CCGCTATCTTGGGTTCTAACCTGTTGCCT (site CCGATATCTAG),0.199
10,CCGCTATCTTGGGTTCTAACCTGTTGCCT (site CCGCTATCTAG),0.379
11,CCGCTATCTTGGGTTCTAACCTGTTGCCT (site CCGGTATCTAG),0.104
12,CCGCTATCTTGGGTTCTAACCTGTTGCCT (site CCGTTATCTAG),0.0555
13,CCGCTCGCTTGGGTTCTAACCTGTTGCCT (site CCGCTCGCTAG),0.146
14,CCGCTCGCTTGGGTTCTAACCTGTTGCCT (site CCGCTTACTAG),0.117
15,CCGTCGTCTTGGGTTCTAACCTGTTGCCT (site CCGTCATCTAG),0.0517
16,CCGTCGTCTTGGGTTCTAACCTGTTGCCT (site CCGTCGTCTAG),0.255
17,CCGTCTACTTGGGTTCTAACCTGTTGCCA (site CCGTCTACTTG),0.121
18,CCGTCTACTTGGGTTCTAACCTGTTGCCA (site TAACTGTCTAA),0.164
19,CCGTCTACTTGGGTTCTAACCTGTTGCTC (site CCGTCTACTAA),0.0412
20,CCGTCTACTTGGGTTCTAACCTGTTGCTC (site CCGTCTACTCA),0.209
21,CCGTCTACTTGGGTTCTAACCTGTTGCTC (site CCGTCTACTGA),0.0724
22,CCGTCTACTTGGGTTCTAACCTGTTGCTC (site CCGTCTACTTA),0.0131

row,Sequence,recombinant barcode read abundance (log10)
1,CCGTTGTCTTGGGTTCTAACCTGTTGCTA (site CCGTTGTCTTA),0.48
2,CCGTTGTCTTGGGTTCTAACCTGTTGCTA (site GGTCGTACTAG),0.0443
3,CCTAAGTCTTGGGTTCTAACCTGTTGCCA (site CCTAAGTCTTG),0.11
4,CCTAAGTCTTGGGTTCTAACCTGTTGCCA (site GACTTAACTAA),0.133
5,CCTAGAACTTGGGTTCTAACCTGTTGCCT (site CCTAGAACTAG),0.134
6,CCTAGAACTTGGGTTCTAACCTGTTGCCT (site CCTAGACCTAG),0.0135
7,CCTAGAACTTGGGTTCTAACCTGTTGCCT (site CCTAGAGCTAG),0.126
8,CCTAGAACTTGGGTTCTAACCTGTTGCCT (site CCTAGATCTAG),0.0929
9,CCTCATACTTGGGTTCTAACCTGTTGCCA (site CCTCATACTTG),0.179
10,CCTCATACTTGGGTTCTAACCTGTTGCCA (site GGAGTACCTAT),0.02
11,CCTCCCTCTTGGGTTCTAACCTGTTGCTG (site CCTCCCTCTCA),2.49
12,CCTCCCTCTTGGGTTCTAACCTGTTGCTG (site CCTCCCTCTTA),0.036
13,CCTCGATCTTGGGTTCTAACCTGTTGCAT (site CCTCGATCTAT),1.59
14,CCTCGATCTTGGGTTCTAACCTGTTGCAT (site TCTCGATCTAT),0.185
15,CCTCGGCCTTGGGTTCTAACCTGTTGCAT (site CCACGGCCTAT),0.0708
16,CCTCGGCCTTGGGTTCTAACCTGTTGCAT (site CCTCGGCCTAT),0.862
17,CCTCGTCCTTGGGTTCTAACCTGTTGCCC (site CCTCGTCCTGG),0.175
18,CCTCGTCCTTGGGTTCTAACCTGTTGCCC (site TAGGACTCTAT),0.00798
19,CCTCTGCCTTGGGTTCTAACCTGTTGCCT (site CCTCTGCCTAG),0.855
20,CCTCTGCCTTGGGTTCTAACCTGTTGCCT (site CGTCTCCCTAG),0.103
21,CCTGAATCTTGGGTTCTAACCTGTTGCCT (site CCTGAATCTAG),0.1
22,CCTGAATCTTGGGTTCTAACCTGTTGCCT (site CCTGACTCTAG),0.19

row,Sequence,recombinant barcode read abundance (log10)
1,CCTGAATCTTGGGTTCTAACCTGTTGCCT (site CCTGAGTCTAG),0.279
2,CCTGAATCTTGGGTTCTAACCTGTTGCCT (site CCTGATTCTAG),0.073
3,CCTGAGTCTTGGGTTCTAACCTGTTGCCT (site CCTGAATCTAG),0.289
4,CCTGAGTCTTGGGTTCTAACCTGTTGCCT (site CCTGACTCTAG),0.0437
5,CCTGAGTCTTGGGTTCTAACCTGTTGCCT (site CCTGAGTCTAG),1.01
6,CCTGAGTCTTGGGTTCTAACCTGTTGCCT (site CCTGATTCTAG),0.0908
7,CCTGGGCCTTGGGTTCTAACCTGTTGCCT (site CATGGGCCTAG),0.0944
8,CCTGGGCCTTGGGTTCTAACCTGTTGCCT (site CCTGGGCCTAG),0.11
9,CCTGGGCCTTGGGTTCTAACCTGTTGCCT (site CGTGGGCCTAG),0.0559
10,CCTGGGCCTTGGGTTCTAACCTGTTGCCT (site CTTGGGCCTAG),0
11,CCTGGGTCTTGGGTTCTAACCTGTTGCTT (site CATGGGTCTAG),0.0557
12,CCTGGGTCTTGGGTTCTAACCTGTTGCTT (site CCTGGGTCTAA),1.08
13,CCTGTCACTTGGGTTCTAACCTGTTGCCA (site CCTGTCACTTG),0.474
14,CCTGTCACTTGGGTTCTAACCTGTTGCCA (site TACCGAGCTCA),0.11
15,CCTTGAGCTTGGGTTCTAACCTGTTGCTG (site CCTTGAGCTCA),0.308
16,CCTTGAGCTTGGGTTCTAACCTGTTGCTG (site GCTTGAGCTCG),0.0694
17,CCTTGTACTTGGGTTCTAACCTGTTGCTT (site AGCATCTCTCG),0.0216
18,CCTTGTACTTGGGTTCTAACCTGTTGCTT (site CCTTGTACTAA),0.131
19,CCTTTGACTTGGGTTCTAACCTGTTGCTT (site CCTTTGACTAA),0.0825
20,CCTTTGACTTGGGTTCTAACCTGTTGCTT (site CCTTTGTCTAA),0.156
21,CGAACCGCTTGGGTTCTAACCTGTTGCCT (site CAAACCGCTAG),0.26
22,CGAACCGCTTGGGTTCTAACCTGTTGCCT (site CCAACCGCTAG),0.0439

row,Sequence,recombinant barcode read abundance (log10)
1,CGAACCGCTTGGGTTCTAACCTGTTGCCT (site CGAACCGCTAG),0.974
2,CGAACCGCTTGGGTTCTAACCTGTTGCCT (site CTAACCGCTAG),0.0258
3,CGAACCTCTTGGGTTCTAACCTGTTGCCG (site CGAACCTCTCG),0.903
4,CGAACCTCTTGGGTTCTAACCTGTTGCCG (site CGAATCCCTCG),0.0358
5,CGAACTACTTGGGTTCTAACCTGTTGCAT (site CGAACTACTAA),0.215
6,CGAACTACTTGGGTTCTAACCTGTTGCAT (site CGAACTACTAC),0.168
7,CGAACTACTTGGGTTCTAACCTGTTGCAT (site CGAACTACTAG),0.0576
8,CGAACTACTTGGGTTCTAACCTGTTGCAT (site CGAACTACTAT),0.239
9,CGAACTACTTGGGTTCTAACCTGTTGCTT (site CGAACTACTAA),0.142
10,CGAACTACTTGGGTTCTAACCTGTTGCTT (site CGAACTACTAC),0.205
11,CGAACTACTTGGGTTCTAACCTGTTGCTT (site CGAACTACTAG),0.202
12,CGAACTACTTGGGTTCTAACCTGTTGCTT (site CGAACTACTAT),0.0384
13,CGAAGGACTTGGGTTCTAACCTGTTGCTA (site CGAAGGACTTA),0.973
14,CGAAGGACTTGGGTTCTAACCTGTTGCTA (site CTAAGGACTTA),0.231
15,CGAATCACTTGGGTTCTAACCTGTTGCCT (site CGAATCACTAG),0.686
16,CGAATCACTTGGGTTCTAACCTGTTGCCT (site CGAATCCCTAG),0.062
17,CGAATCACTTGGGTTCTAACCTGTTGCCT (site CGAATCGCTAG),0.182
18,CGAATCACTTGGGTTCTAACCTGTTGCCT (site CGAATCTCTAG),0.0867
19,CGAATCCCTTGGGTTCTAACCTGTTGCCG (site CGAACCTCTCG),0.185
20,CGAATCCCTTGGGTTCTAACCTGTTGCCG (site CGAATCCCTCG),0.906
